Values of other authors, collected in patent US4652627A, “Calcitonin analogs with C-terminal D-amino acid substituents” (priority 1985, dated 1987).
Positions of bridges follow the written chain, without caps; N, C: chain ends. No end group written: not given here.

Details: relative to human calcitonin = 100%

Substance	activity [%]
deletion of the entire prolinamide moiety: human calcitonin with the entire C-terminal prolinamide moiety deleted (CGNLSTCMLGTYTQDFNKFHTFPQTAIGVGA; ends and bridges not checked; cysteine pairing not given here; UniProt P01258 85-115, looked up, fragment)	0.12
human calcitonin (CGNLSTCMLGTYTQDFNKFHTFPQTAIGVGAP-NH2; disulfide 1-7; ends not checked; UniProt P01258 85-116, looked up) [natural 32 amino acid calcitonin of human origin with C-terminal prolinamide]	100
